According to patent US9993529B2, “Stable formulations of a hyaluronan-degrading enzyme” (Halozyme, Inc., priority 2011, dated 2018):
Like-named read-outs stand apart in the source and are kept apart here. Residues, ends and D or L forms follow the SMILES beside them.

Columns and labels:
[1] = SEC, % main rHuPH20 peak; format: physicochemical
Procedure: SEC was performed using the following conditions: 1× Phosphate Buffered Saline (PBS), a Toso BioScience G2000 SWXL column, and a flow rate set at 1 mL/min. Data were collected as described above and means were reported and entered into the design table following the sample sequence provided by the DOE software.

[2] = target: T1, rHuPH20 (Homo sapiens, UniProt P38567); details: for Effect on rHuPH20 enzymatic activity: stabilizer screen in rHuPH20/insulin formulation ([…] m-cresol, 0.2% phenol, pH 7.3±0.1), 30° C. about one week, semi-quantitative in comparison with NaCl; for rHuPH20 activity: 48 hours
T1 sequence (P38567 36-482): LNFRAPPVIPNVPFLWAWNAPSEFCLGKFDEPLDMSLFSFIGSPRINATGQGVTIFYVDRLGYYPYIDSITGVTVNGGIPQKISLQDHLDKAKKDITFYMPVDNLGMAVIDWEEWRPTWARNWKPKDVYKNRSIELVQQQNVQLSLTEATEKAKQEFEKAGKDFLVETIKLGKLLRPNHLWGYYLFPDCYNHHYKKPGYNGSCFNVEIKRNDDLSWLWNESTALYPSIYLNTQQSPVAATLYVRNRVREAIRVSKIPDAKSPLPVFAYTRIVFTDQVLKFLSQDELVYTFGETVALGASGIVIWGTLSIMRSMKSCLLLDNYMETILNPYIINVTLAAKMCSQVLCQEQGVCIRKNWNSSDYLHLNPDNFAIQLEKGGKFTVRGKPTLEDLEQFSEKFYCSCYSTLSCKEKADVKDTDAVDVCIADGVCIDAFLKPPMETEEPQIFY
Procedure: The activity of a hyaluronan degrading enzyme can be assessed using methods well known in the art. […] A Hyaluronidase Reference Standard (USP) or National Formulary (NF) Standard Hyaluronidase solution can be used in an assay to ascertain the activity, in units, of any hyaluronidase. In one example, activity is measured using a microturbidity assay. […] The turbidity of the resulting sample is measured at 640 nm after an additional development period.

[3] = RP-HPLC insulin apparent solubility / percent recovery (content)
Procedure: Apparent solubility was measured as the percent insulin recovery as compared to the initial formulations/conditions.
Samples were prepared by withdrawing 100 μL from each vial at every time point and centrifuging prior to loading. Samples were stored in an autosampler at 4° C. prior to use, and were considered stable for 3 days after preparation. All samples were tested in duplicate.
For insulin, 20 μL was injected for each HPLC run.
To determine the apparent solubility, the peak area of insulin/insulin analog main peak and desamido peak were integrated and combined together to calculate the percentage relative to the standards. […] The data were processed using Design-Expert® 7.0 (StatEase) and the “historical data” feature. Insulin percent purity was expressed as the percent of main insulin versus all insulin species.

[4] = Temperature effect on pH and NaOH titration of lysyl lysine buffer; format: physicochemical; details: Ex27 rHuPH20/insulin glulisine formulations
[5] = in vivo; cited from earlier work
[6] = RP-HPLC rHuPH20 oxidation peaks (ox-1, ox-2); format: physicochemical; details: 0.02% surfactant, 30° C., 72 hours
From the text: The stability of hyaluronan degrading enzymes in a composition, such as in the co-formulations provided herein, also can be assessed using other methods and assays known in the art. […] Percent recovery is the relative percentage of the hyaluronidase in the co-formulation over time and at various storage conditions, as compared to a reference sample. […] An increase in particle size and a decrease in the melting temperature indicates denaturation and subsequent aggregation of the hyaluronidase. […] Other methods known to one of skill in the art that can be used to determine the stability of the hyaluronidase in the co-formulations provided herein, include polyacrylamide gel electrophoresis (PAGE), immunoblotting, nuclear magnetic resonance (NMR) spectroscopy, mass spectrometry, circular dichroism (CD) and dye-based fluorescence assays.
The formulations varied in the surfactant and surfactant concentration and the buffer (either histidine or phosphate).
Methionine oxidation can be prevented by addition of free methionine as a scavenger to react with potential oxidative compounds.

[7] = 35° C., 1 day, concentrations of Table 21
[8] = stabilizer screen in rHuPH20/insulin formulation, RP-HPLC on samples stored at 5° C., semi-quantitative in comparison with NaCl
[9] = 4° C., concentrations of Table 22

Benzalkonium Chloride
% Main rHuPH20 peak by non-denaturing SEC [1, 7]: <LOD

NCC(=O)NCC(=O)O [Gly-Gly] (H-Gly-Gly-OH)
Effect on rHuPH20 enzymatic activity [2]: No effect

Cl.Cl.NCCCCC(N)C(=O)NC(CCCCN)C(=O)O (stereo not drawn) [Lys-Lys, H-Lys-Lys-OH HCl]
Lys-Lys concentration sufficient to improve rHuPH20 stability ([2]; Ex24, 40° C.): 10 mM
Effect on rHuPH20 enzymatic activity [2]: Strong stabilizer
stabilization of rHuPH20 compared with NaCl ([2]; stabilizer screen, […] m-cresol, 0.2% phenol, 30° C., about one week): stabilized rHuPH20 more than NaCl
Effect on insulin solubility [3, 8]: Reduced solubility
Effect on insulin solubility ([3]; stabilizer screen, 5° C.): caused severe precipitation of insulin
temperature effect (dpH/dT) [4]: −0.033 U/° C.

CSCC[C@H](N)C(=O)O [methionine]
Effect on rHuPH20 enzymatic activity [2]: No effect
Effect on insulin solubility [3, 8]: No effect

detemir: long-lasting insulin analog
Duration [5]: 28 h

COC(=O)c1ccc(O)cc1 [methylparaben]
rHuPH20 activity ([2]; 4° C.): 10,380
rHuPH20 activity ([2]; 35° C.): 12,660
Enzymatic Activity of rHuPH20 ([2]; preservative 0.05 %, 1 Month, 25° C., insulin/rHuPH20): 2061 U/mL
Enzymatic Activity of rHuPH20 ([2]; preservative 0.05 %, 1 Week, 35° C.): 1058^2 U/mL
Enzymatic Activity of rHuPH20 ([2]; preservative 0.05 %, 2 Weeks, 35° C.): 1018^2 U/mL
Enzymatic Activity of rHuPH20 ([2]; preservative 0.1 %, 1 Month, 25° C.): 1919 U/mL
Enzymatic Activity of rHuPH20 ([2]; preservative 0.1 %, 1 Week, 35° C.): 2085 U/mL
Enzymatic Activity of rHuPH20 ([2]; preservative 0.1 %, 2 Weeks, 35° C.): 1968 U/mL
Enzymatic Activity of rHuPH20 ([2]; preservative 0.2 %, 1 Month, 25° C.): 2196 U/mL
Enzymatic Activity of rHuPH20 ([2]; preservative 0.2 %, 1 Week, 35° C.): 1927 U/mL
Enzymatic Activity of rHuPH20 ([2]; preservative 0.2 %, 2 Weeks, 35° C.): 1590 U/mL
Enzymatic Activity of rHuPH20 ([2]; preservative 0.3 %, 1 Month, 25° C.): 2049 U/mL
Enzymatic Activity of rHuPH20 ([2]; preservative 0.3 %, 2 Weeks, 35° C.): 447 U/mL
% Main rHuPH20 peak by non-denaturing SEC [1, 9]: 100.00%

Cc1cccc(O)c1 [m-cresol]
rHuPH20 activity ([2]; 35° C.): <LOQ
% Main rHuPH20 peak by non-denaturing SEC [1, 9]: 100.00%

OCCCCCl [4-Chloro-1-butanol]
% Main rHuPH20 peak by non-denaturing SEC [1, 7]: <LOD

Polysorbate 80
% of Oxidation Peak 1 of rHuPH20 ([6]; Methionine 0 mM): 4.01%
% of Oxidation Peak 1 of rHuPH20 ([6]; Methionine 2 mM): 3.50%
% of Oxidation Peak 1 of rHuPH20 ([6]; Methionine 10 mM): 3.44%
% of Oxidation Peak 1 of rHuPH20 ([6]; Methionine 50 mM): 3.34%

glargine: long-lasting insulin analog
Duration [5]: 28 h

OC[C@H]1O[C@H](O[C@H]2O[C@H](CO)[C@@H](O)[C@H](O)[C@H]2O)[C@H](O)[C@@H](O)[C@@H]1O [Trehalose]
Effect on rHuPH20 enzymatic activity [2]: No effect

OC[C@@H](O)[C@@H](O)[C@H](O)[C@@H](O)CO [sorbitol]
Effect on rHuPH20 enzymatic activity [2]: No effect

Polysorbate 20
% of Oxidation Peak 1 of rHuPH20 ([6]; Methionine 0 mM): 4.01%
% of Oxidation Peak 1 of rHuPH20 ([6]; Methionine 2 mM): 3.43%
% of Oxidation Peak 1 of rHuPH20 ([6]; Methionine 10 mM): 3.37%
% of Oxidation Peak 1 of rHuPH20 ([6]; Methionine 50 mM): 3.38%

NCCCC[C@H](N)C(=O)O [Lysine]
Effect on rHuPH20 enzymatic activity [2]: No effect
Effect on insulin solubility [3, 8]: No effect

NC(CO)(CO)CO [Tris (100 mM)]
Effect on rHuPH20 enzymatic activity [2]: No effect
Effect on insulin solubility [3]: No effect

O=C(O)CCCc1ccccc1 [Phenyl butyric acid]
Effect on rHuPH20 enzymatic activity [2]: No effect

N[C@@H](Cc1ccccc1)C(=O)O [L-Phenylalanine]
% Main rHuPH20 peak by non-denaturing SEC [1, 9]: 100.00%

OCC(O)CO [glycerol]
Effect on rHuPH20 enzymatic activity [2]: No effect
Effect on insulin solubility [3]: No/slight effect;

OC[C@@H](O)[C@@H](O)[C@H](O)[C@H](O)CO [Mannitol]
Effect on rHuPH20 enzymatic activity [2]: No effect

C[N+](C)(C)CC(=O)O [Betaine]
Effect on rHuPH20 enzymatic activity [2]: No effect
Effect on insulin solubility [3, 8]: No effect

C[N+](C)(C)[O-] [Trimethylamine oxide (TMAO)]
Effect on rHuPH20 enzymatic activity [2]: No effect
Effect on insulin solubility [3, 8]: No effect

NC(=O)CC[C@H](N)C(=O)O [Glutamine]
Effect on rHuPH20 enzymatic activity [2]: No effect
Effect on insulin solubility [3, 8]: No effect

O=C([O-])c1ccccc1.[Na+] [Sodium Benzoate]
Effect on rHuPH20 enzymatic activity [2]: No effect

OC[C@H]1O[C@@](CO)(O[C@H]2O[C@H](CO)[C@@H](O)[C@H](O)[C@H]2O)[C@@H](O)[C@@H]1O [Sucrose]
Effect on rHuPH20 enzymatic activity [2]: No effect

O[C@H]1[C@H](O)[C@@H](O)[C@H](O)[C@@H](O)[C@H]1O [Inositol]
Effect on rHuPH20 enzymatic activity [2]: No effect
